Reference: patent publication US8318778B2, “Urea glucokinase activators” (Novo Nordisk A/S, priority 2007, dated 2012)

Target: T1, recombinant human glucokinase (Homo sapiens, UniProt P35557)
T1 construct: N-terminal His-tag ((His)8-VEQILA . . . Q466); made in house; host or cells: E. coli
T1 sequence (P35557 17-466 isoform P35557-2): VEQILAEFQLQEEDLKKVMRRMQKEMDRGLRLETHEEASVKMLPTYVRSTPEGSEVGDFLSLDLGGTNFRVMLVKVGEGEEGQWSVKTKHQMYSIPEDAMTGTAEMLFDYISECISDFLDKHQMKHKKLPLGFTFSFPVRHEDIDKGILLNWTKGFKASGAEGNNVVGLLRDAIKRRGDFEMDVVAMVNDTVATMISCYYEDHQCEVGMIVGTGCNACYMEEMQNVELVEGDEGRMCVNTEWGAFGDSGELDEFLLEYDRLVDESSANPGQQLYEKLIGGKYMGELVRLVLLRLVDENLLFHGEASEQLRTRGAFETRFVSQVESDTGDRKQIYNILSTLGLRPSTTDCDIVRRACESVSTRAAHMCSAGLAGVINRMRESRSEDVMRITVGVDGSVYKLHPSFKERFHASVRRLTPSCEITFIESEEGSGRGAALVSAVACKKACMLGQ
Test: Glucokinase Activity Assay (I): spectrometric assay coupled to glucose 6-phosphate dehydrogenase
Type: biochemical
Conditions: 15 mM glucose
Protocol: Glucokinase activity is assayed spectrometrically coupled to glucose 6-phosphate dehydrogenase to determine compound activation of glucokinase. The final assay contains 50 mM Hepes, pH 7.1, 50 mM KCl, 5 mM MgCl2, 2 mM dithiothreitol, 0.6 mM NADP, 1 mM ATP, 0.195 μM G-6-P dehydrogenase (from Roche, 127 671), 15 nM recombinant human glucokinase.
The purification of His-tagged human glucokinase (hGK) was performed as follows: The cell pellet from 50 ml E. coli culture was resuspended in 5 ml extraction buffer A (25 mM HEPES, pH 8.0, 1 mM MgCl2, 150 mM NaCl, 2 mM mercaptoethanol) with addition of 0.25 mg/ml lysozyme and 50 μg/ml sodium azide. […]
The compound to be tested is added into the well in final 2.5% DMSO concentration in an amount sufficient to give a desired concentration of compound, for instance 1, 5, 10, 25 or 50 μM. […] The plate is incubated at 25° C. for 5 min and kinetics is measured at 340 nm in SpectraMax every 30 seconds for 5 minutes. Results for each compound are expressed as the fold activation of the glucokinase activity compared to the activation of the glucokinase enzyme in an assay without compound after having been subtracted from a “blank”, which is without glucokinase enzyme and without compound. […]
The glucose sensitivity of the compounds are measured at a compound concentration of 10 μM and at glucose concentrations of 5 and 15 mM.

EC50: 289 nM | FA (15 mM) (fold activation of glucokinase activity vs assay without compound): 2.1
Compound: C[C@H]1CC[C@H](N(CC(F)(F)c2ccccc2)C(=O)Nc2ncc(SCC(=O)O)s2)CC1 [Example 83, {2-[3-(2,2-Difluoro-2-phenyl-ethyl)-3-(trans-4-methyl-cyclohexyl)-ureido]-thiazol-5-ylsulfanyl}-acetic acid]
